# Earlier results, collected in patent US20120191185A1, “OPHTHALMIC INTRAOCULAR LENS FOR PROMOTING HEALING” (priority 2011, published 2012).
# Columns and labels:
# [1] = subconjunctival administration
# [2] = test system: posterior capsule opacification; details: rabbits
# [3] = primates
# corneal anterior stroma = details: mammals, clinical setting
molecule,measurement,setting,value
O=c1[nH]cc(F)c(=O)[nH]1 [5-fluorouracil],ocular complications,[1],corneal epithelial defects and other ocular complications
same,effect on posterior capsule opacification,[2],reduces posterior capsule opacification
COc1cc2c(c(OC)c1OC)-c1ccc(OC)c(=O)cc1[C@@H](NC(C)=O)CC2 [colchicine],toxic effect on the optic nerve,[3],temporary toxic effect on the optic nerve
same,inhibition of lens epithelial cell proliferation and migration,lens epithelial cell,potent inhibitor
platelet derived growth factor,corneal anterior stroma healing,corneal anterior stroma,accelerate corneal anterior stroma healing
